Assay results: BindingDB's records for PubMed 37257213 (Birla Institute of Technology and Science Pilani)
pIC50: −log10 of the molar value.

Biological target: Trypanothione reductase (UniProt P39050)
Experiment: Inhibition of Leishmania donovani Trypanothione reductase

Trypanothione reductase, sequence (P39050 whole entry): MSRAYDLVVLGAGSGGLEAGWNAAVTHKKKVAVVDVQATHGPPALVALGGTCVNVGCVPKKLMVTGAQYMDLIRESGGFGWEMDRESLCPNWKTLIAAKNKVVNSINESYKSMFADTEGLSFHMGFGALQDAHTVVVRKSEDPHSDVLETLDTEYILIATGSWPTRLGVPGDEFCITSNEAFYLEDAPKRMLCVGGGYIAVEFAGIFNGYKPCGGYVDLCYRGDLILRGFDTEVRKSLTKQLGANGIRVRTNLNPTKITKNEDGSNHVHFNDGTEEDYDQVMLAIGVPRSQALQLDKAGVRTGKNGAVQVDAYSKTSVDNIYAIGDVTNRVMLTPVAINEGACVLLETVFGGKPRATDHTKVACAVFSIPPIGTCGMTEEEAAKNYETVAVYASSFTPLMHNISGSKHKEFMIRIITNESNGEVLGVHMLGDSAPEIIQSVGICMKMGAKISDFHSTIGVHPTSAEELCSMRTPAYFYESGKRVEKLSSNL

For `CN(C)c1ncnc2c1C1(CCCC1)Cc1ccccc1-2` [Name not given], the pIC50 was 4.04.
